Consider 2 compounds from patent publication US10398651B2, “Carrier-free nanoparticles” (priority 2016, dated 2019).

Data set [1] relates to K562 chronic myelogenous leukemia cells. As to conditions: cited from earlier work.
The test system of a further data set is HT-29 colon cancer cells. The conditions noted are these: cited from earlier work.
Data set [2] has as its system HeLa cervical cancer cells. The conditions noted are these: cited from earlier work.
In data set [3] the test system is B16F10 cells. The data set can be described thus: IC50 determination, MTT assay, B16F10 cells. In kind it is cell-based. As to conditions: Mus musculus. Here is the method: Cytotoxicity of NC was tested with B16F10 cells. B16F10 cells were grown in RPMI-1640 or DMEM medium supplemented with 10% FBS, penicillin (100 IU/mL) and streptomycin (100 μg/mL). B16F10 cells grown in RPMI-1640 were seeded in a 96 well plate at a density of 10,000 cells per well. After overnight incubation, the culture medium was replaced with a fresh cell culture medium, to which PNC-alb, Cim-C-alb, or Cim-F-alb were added to provide the final concentration eq. to 30 μg/mL PTX. After 3 h incubation, cells were washed with PBS twice to remove NC, followed by additional incubation for 21 h in NC-free medium. The cell viability was determined by the MTT (3-(4,5-dimethylthiazol-2-yl)-2,5-diphenyltetrazolium bromide) assay. Cells were treated with 75 μg of MTT and incubated for 3.5 h. The formazan crystals were dissolved in stop/solubilization solution (50% DMF, 20% SDS, pH 5) and quantified with a SpectraMax M3 microplate reader (Molecular Devices, CA, USA) at the wavelength of 562 nm.
(§1) Cytotoxicity of Cim-F-alb was tested with B16F10 cells and SKOV-3 human ovarian cancer cells (ATCC, Manassas, Va., USA) over a range of PTX concentrations. SKOV-3 cells were grown in RPMI-1640 medium containing 10% FBS and penicillin (100 IU/mL) and streptomycin (100 μg/mL). Both cells were treated with Cim-F-alb for 24 h, followed by post-treatment incubation in NC-free medium for 12-48 h. Free PTX and Abraxane were tested in the same manner for comparison. Cim-F-alb and Abraxane were directly reconstituted in PBS and serially diluted by a factor of 10. Free PTX solution was prepared as PTX stock solution in 50% DMSO at a concentration of 1 mg/mL and diluted in PBS. The maximum possible concentration of DMSO in the medium was 5% v/v. SKOV-3 cells and B16F10 cells grown in RPMI-1640 were tested with the MTT assay, and B16F10 cells grown in DMEM were tested with PI staining and flow cytometry. IC50 was calculated with GraphPad Prism 6 (La Jolla, Calif., USA).
For orientation: Tetrazolium dyes change colour on reduction, which living cells bring about.

Data set [4] concerns SKOV-3 human ovarian cancer cells. The data set can be described thus: IC50 determination, MTT assay, SKOV-3 cells. Type of data set: cell-based. The conditions noted are these: SK-OV-3, SKOV3, 24 h treatment + 48 h post-treatment incubation. Here is the method:
as §1

The nature of data set [5]: As-received PTX dissolved in FBS-containing media after 6 h. In kind it is physicochemical. The conditions noted are these: 6 h at 37° C. Here is the method:
FIG. 23. […] One milligram of PTX was added to 1 mL of each medium and incubated for 6 h with agitation. A supernatant was separated from the undissolved PTX by centrifugation at 135,700 rcf for 10 min, extracted with 3 mL of ethyl acetate, which was evaporated and reconstituted in 50% ACN for HPLC analysis. […] The FBS suspension was sampled at 6 h to quantify dissolved PTX by that time. A supernatant was separated from the sample by 10 min centrifugation at 135,700 rcf and analyzed in the same way. The incubation time was limited to 6 h due to the instability of PTX in serum. Since the extraction method cannot differentiate protein-bound PTX from free PTX, the measured values represent the sum of serum protein-bound and free PTX. • [1] G. Bajaj, M. R. Kim, S. I. Mohammed, Y. Yeo, Hyaluronic acid-based hydrogel for regional delivery of paclitaxel to intraperitoneal tumors, J. Control. Release 158 (2012) 386-392. • [2] I. Ringel, S. B. Horwitz, Taxol is converted to 7-epitaxol, a biologically active isomer, in cell culture medium, J. Pharmacol. Exp. Ther. 242 (1987) 692-698.

The test system of data set [6] is B16F10 cells. The data set can be described thus: IC50 determination, PI staining and flow cytometry, B16F10 cells. As to conditions: Mus musculus, B16-F10, 24 h treatment, PI staining + flow cytometry. Type of data set: cell-based. How it is done: B16F10 cells grown in DMEM medium was tested with propidium iodide (PI) staining due to the production of melanin [32], which interferes with colorimetric assay. B16F10 cells were seeded in a 6 well plate at a density of 100,000 cells per well. After overnight incubation, the medium was replaced with fresh medium, to which 100 μL of PNC-alb, Cim-C-alb, or Cim-F-alb in PBS was added to provide the final concentration eq. to 30 μg/mL PTX. After incubation with NC for 3 h, cells were washed with PBS two times to remove NC, followed by additional incubation for 21 h in NC-free medium. Then, B16F10 cells were trypsinized and stained with PI (1 μg/mL) for 15 min in dark at room temperature. The cells were centrifuged at 300 g for 5 minutes to remove extra PI dye and reconstituted in PBS for flow cytometry (Accuri C6, BD Biosciences, San Jose, Calif.). At least 15,000 gated events were acquired, and FL-2 channel was monitored to determine the population of PI-stained cells.
Cytotoxicity of Cim-F-alb was tested with B16F10 cells and SKOV-3 human ovarian cancer cells (ATCC, Manassas, Va., USA) over a range of PTX concentrations. SKOV-3 cells were grown in RPMI-1640 medium containing 10% FBS and penicillin (100 IU/mL) and streptomycin (100 μg/mL). […] IC50 was calculated with GraphPad Prism 6 (La Jolla, Calif., USA).

Structures are written as SMILES.

On to `CCCCCCCCCCCCCCCC[N+](C)(C)C.[Br-]` [CTAB, hexadecyltrimethylammonium bromide], for which the cytotoxicity entry (in data set [1]; in the data set with HT-29 colon cancer cells; in data set [2]) was “cytotoxic” each time.

A word on the IC50: it is the midpoint of a concentration-inhibition curve. Take `CC(=O)O[C@H]1C(=O)[C@@]2(C)[C@H]([C@H](OC(=O)c3ccccc3)[C@]3(O)C[C@H](OC(=O)[C@H](O)[C@@H](NC(=O)c4ccccc4)c4ccccc4)C(C)=C1C3(C)C)[C@]1(OC(C)=O)CO[C@@H]1C[C@@H]2O` [Free PTX, paclitaxel]: the IC50 came out at 213 nM with B16F10 cells [3] (B16-F10, 24 h, B16F10, 24 h treatment + 24 h post-treatment incubation); 91.3 nM in the data set on B16F10 cells [3] (B16-F10, B16F10, 24 h treatment + 12 h post-treatment incubation); 765 nM with B16F10 cells [3] (B16-F10, B16F10, 24 h treatment + 48 h post-treatment incubation); 34.2 nM in data set [4]; 423 nM in the data set on B16F10 cells [6]. The “PTX dissolved in 10% FBS” value in data set [5] was 9.6 ± 2.6 µg/mL. Moreover, the “PTX dissolved in 50% FBS” value in data set [5] came out at 47.5 ± 11.4 µg/mL. Moreover, in data set [5], the “PTX dissolved in undiluted FBS” value turned out to be 71.9 ± 8.2 µg/mL.
